Test results from publication PMC5218480 (PLoS ONE, 2017).

Test system: MV-4-11 cells
Experiment: Gene expression microarray analysis (Affymetrix PrimeView) and GSEA
Assay type: cell-based, human
Set-up: RFU PODN (11730768_x_at) / Fold change /veh PODN (11730768_x_at) / RFU LINC00158 (11744669_a_at) / Fold change /veh LINC00158 (11744669_a_at) / RFU DUSP10 (11751237_a_at) / Fold change /veh DUSP10 (11751237_a_at) / RFU ID3 (11757404_x_at) / Fold change /veh ID3 (11757404_x_at) / RFU PLEKHG5 (11737974_s_at) / Fold change /veh PLEKHG5 (11737974_s_at) / RFU LRRC4B (11730491_at) / Fold change /veh LRRC4B (11730491_at) / RFU GIMAP4 (11747438_a_at) / Fold change /veh GIMAP4 (11747438_a_at) / RFU KRT8 (11758183_x_at) / Fold change /veh KRT8 (11758183_x_at) / RFU CNN1 (11734310_a_at) / Fold change /veh CNN1 (11734310_a_at) / RFU VPS37D (11726825_at) / Fold change /veh VPS37D (11726825_at) / RFU C10orf10 (11716522_x_at) / Fold change /veh C10orf10 (11716522_x_at) / RFU KIR2DL2 /// KIR2DL4 /// KIR2DL5A /// KIR2DL5B /// KIR2DS1 /// KIR2DS2 /// KIR2DS3 /// KIR2DS4 /// KIR3DL3 /// KIR3DL3 /// KIR3DS1 (11738374_at) / Fold change /veh KIR2DL2 /// KIR2DL4 /// KIR2DL5A /// KIR2DL5B /// KIR2DS1 /// KIR2DS2 /// KIR2DS3 /// KIR2DS4 /// KIR3DL3 /// KIR3DL3 /// KIR3DS1 (11738374_at) / RFU C1QL1 (11718748_at) / Fold change /veh C1QL1 (11718748_at) / RFU TMPRSS4 (11747572_a_at) / Fold change /veh TMPRSS4 (11747572_a_at) / RFU HAMP (11756126_x_at) / Fold change /veh HAMP (11756126_x_at) / RFU RNFT2 (11725882_a_at) / Fold change /veh RNFT2 (11725882_a_at) / RFU NR4A2 (11747474_a_at) / Fold change /veh NR4A2 (11747474_a_at) / RFU ABCC12 (11746883_a_at) / Fold change /veh ABCC12 (11746883_a_at) / RFU TMEM136 (11760407_x_at) / Fold change /veh TMEM136 (11760407_x_at) / RFU CLDN22 /// WWC2 (11732394_at) / Fold change /veh CLDN22 /// WWC2 (11732394_at) / RFU HLA-DPB1 (11760878_x_at) / Fold change /veh HLA-DPB1 (11760878_x_at) / RFU SPINT1 (11716480_a_at) / Fold change /veh SPINT1 (11716480_a_at) / RFU GAP43 (11754022_s_at) / Fold change /veh GAP43 (11754022_s_at) / RFU A4GNT (11735810_at) / Fold change /veh A4GNT (11735810_at) / RFU PRB3 (11715151_x_at) / Fold change /veh PRB3 (11715151_x_at) / RFU TUBB4B (11761932_at) / Fold change /veh TUBB4B (11761932_at) / RFU CAPN14 (11732068_a_at) / Fold change /veh CAPN14 (11732068_a_at) / RFU TMCC2 (11721928_a_at) / Fold change /veh TMCC2 (11721928_a_at) / RFU IRGQ (11745062_a_at) / Fold change /veh IRGQ (11745062_a_at) / RFU FAM174B (11720279_a_at) / Fold change /veh FAM174B (11720279_a_at) / RFU TMPRSS4 (11748680_a_at) / Fold change /veh TMPRSS4 (11748680_a_at) / RFU FAM212B (11763350_a_at) / Fold change /veh FAM212B (11763350_a_at) / RFU PLEKHG5 (11743358_a_at) / Fold change /veh PLEKHG5 (11743358_a_at) / RFU ZSCAN30 (11745921_a_at) / Fold change /veh ZSCAN30 (11745921_a_at) / RFU CMKLR1 (11741424_a_at) / Fold change /veh CMKLR1 (11741424_a_at) / RFU LOC101060620 /// MAPK8IP1 (11723275_at) / Fold change /veh LOC101060620 /// MAPK8IP1 (11723275_at) / RFU SPTSSB (11747773_x_at) / Fold change /veh SPTSSB (11747773_x_at) / RFU PRSS12 (11739890_at) / Fold change /veh PRSS12 (11739890_at) / RFU BIN1 (11741810_x_at) / Fold change /veh BIN1 (11741810_x_at) / RFU WNT11 (11732464_a_at) / Fold change /veh WNT11 (11732464_a_at) / RFU C10orf10 (11716521_a_at) / Fold change /veh C10orf10 (11716521_a_at) / RFU C5orf56 (11738089_at) / Fold change /veh C5orf56 (11738089_at) / RFU CYB561 (11721691_x_at) / Fold change /veh CYB561 (11721691_x_at) / RFU ANKRD19P (11752326_a_at) / Fold change /veh ANKRD19P (11752326_a_at) / RFU OR2T12 /// OR2T33 /// OR2T8 (11738714_s_at) / Fold change /veh OR2T12 /// OR2T33 /// OR2T8 (11738714_s_at) / RFU VCAN (11748164_a_at) / Fold change /veh VCAN (11748164_a_at) / RFU JSRP1 (11732532_at) / Fold change /veh JSRP1 (11732532_at) / RFU KRTAP10-11 (11738290_x_at) / Fold change /veh KRTAP10-11 (11738290_x_at) / RFU MYO3A (11730013_a_at) / Fold change /veh MYO3A (11730013_a_at) / RFU EBF3 (11725865_a_at) / Fold change /veh EBF3 (11725865_a_at) / RFU CAMK2N1 (11719241_x_at) / Fold change /veh CAMK2N1 (11719241_x_at) / RFU C5orf56 (11738088_a_at) / Fold change /veh C5orf56 (11738088_a_at) / RFU OLFML3 (11715873_a_at) / Fold change /veh OLFML3 (11715873_a_at) / RFU LOC100653217 /// NTM (11731650_a_at) / Fold change /veh LOC100653217 /// NTM (11731650_a_at) / RFU MAPK11 (11762145_a_at) / Fold change /veh MAPK11 (11762145_a_at) / RFU FIZ1 (11724087_x_at) / Fold change /veh FIZ1 (11724087_x_at) / RFU OASL (11726364_x_at) / Fold change /veh OASL (11726364_x_at) / RFU SOX15 (11748057_x_at) / Fold change /veh SOX15 (11748057_x_at) / RFU CD79A (11719716_a_at) / Fold change /veh CD79A (11719716_a_at) / RFU HIST1H1D (11736915_at) / Fold change /veh HIST1H1D (11736915_at) / RFU CASKIN2 (11723855_a_at) / Fold change /veh CASKIN2 (11723855_a_at) / RFU LOC730098 (11760151_x_at) / Fold change /veh LOC730098 (11760151_x_at) / RFU OR4N2 (11742367_at) / Fold change /veh OR4N2 (11742367_at) / RFU PRRT2 (11749266_a_at) / Fold change /veh PRRT2 (11749266_a_at) / RFU SNX32 (11753110_a_at) / Fold change /veh SNX32 (11753110_a_at) / RFU CDHR5 (11726645_a_at) / Fold change /veh CDHR5 (11726645_a_at) / RFU RCAN1 (11760418_a_at) / Fold change /veh RCAN1 (11760418_a_at) / RFU FAM167A (11723789_a_at) / Fold change /veh FAM167A (11723789_a_at) / RFU FAM26E (11764081_at) / Fold change /veh FAM26E (11764081_at) / RFU ISYNA1 (11749810_s_at) / Fold change /veh ISYNA1 (11749810_s_at) / RFU ACY1 (11761880_at) / Fold change /veh ACY1 (11761880_at) / RFU 11764098_at / Fold change /veh 11764098_at / RFU SAMD14 (11745864_x_at) / Fold change /veh SAMD14 (11745864_x_at) / RFU NPB (11741838_a_at) / Fold change /veh NPB (11741838_a_at) / RFU TMPRSS6 (11731388_a_at) / Fold change /veh TMPRSS6 (11731388_a_at) / RFU KRTAP10-2 (11738614_at) / Fold change /veh KRTAP10-2 (11738614_at) / RFU ARHGAP8 /// PRR5-ARHGAP8 (11727945_x_at) / Fold change /veh ARHGAP8 /// PRR5-ARHGAP8 (11727945_x_at) / RFU KRTAP5-7 /// NADSYN1 (11734609_at) / Fold change /veh KRTAP5-7 /// NADSYN1 (11734609_at) / RFU RASL12 (11751679_a_at) / Fold change /veh RASL12 (11751679_a_at) / RFU CDKN2B (11736163_a_at) / Fold change /veh CDKN2B (11736163_a_at) / RFU PRF1 (11729649_at) / Fold change /veh PRF1 (11729649_at) / RFU, ZNF638 /// ZNF638-IT1 / Fold change vs veh, ZNF638 /// ZNF638-IT1 / RFU, PANK3 / Fold change vs veh, PANK3 / RFU, SH3YL1 / Fold change vs veh, SH3YL1 / RFU, ZEB2 / Fold change vs veh, ZEB2 / RFU, NRIP1 / Fold change vs veh, NRIP1 / RFU, PTTG1IP / Fold change vs veh, PTTG1IP / RFU, CAPN2 / Fold change vs veh, CAPN2 / RFU, MED14 / Fold change vs veh, MED14 / RFU, SNORA58 / Fold change vs veh, SNORA58 / RFU, C1orf63 / Fold change vs veh, C1orf63 / RFU, LRRFIP1 / Fold change vs veh, LRRFIP1 / RFU, NDUFAF7 / Fold change vs veh, NDUFAF7 / RFU, SLC12A2 / Fold change vs veh, SLC12A2 / RFU, IBTK / Fold change vs veh, IBTK / RFU, ESF1 / Fold change vs veh, ESF1 / Fold change vs veh, TMEM50B / RFU, TAOK1 / Fold change vs veh, TAOK1 / RFU, ACBD3 / Fold change vs veh, ACBD3 / RFU, TMA16 / Fold change vs veh, TMA16 / RFU, RWDD3 / Fold change vs veh, RWDD3 / RFU, BCAT1 / Fold change vs veh, BCAT1 / RFU, EDEM3 / Fold change vs veh, EDEM3 / RFU, TMEM33 / Fold change vs veh, TMEM33 / RFU, WDR75 / Fold change vs veh, WDR75 / RFU, AHCTF1 / Fold change vs veh, AHCTF1 / RFU, TFRC / Fold change vs veh, TFRC / RFU, ZDHHC17 / Fold change vs veh, ZDHHC17 / RFU, NOM1 / Fold change vs veh, NOM1 / RFU, ARL8B / Fold change vs veh, ARL8B / RFU, ZBTB11 / Fold change vs veh, ZBTB11 / RFU, TAMM41 / Fold change vs veh, TAMM41 / RFU, KIAA1704 /// LOC100996395 / Fold change vs veh, KIAA1704 /// LOC100996395 / RFU, ING1 / Fold change vs veh, ING1 / RFU, TRMT61B / Fold change vs veh, TRMT61B / RFU, FUBP3 / Fold change vs veh, FUBP3 / RFU, TP53 / Fold change vs veh, TP53 / RFU, TNKS2 / Fold change vs veh, TNKS2 / RFU, ZFP14 / Fold change vs veh, ZFP14 / RFU, ACTR2 / Fold change vs veh, ACTR2 / RFU, PPP3R1 / Fold change vs veh, PPP3R1 / RFU, PIK3R1 / Fold change vs veh, PIK3R1 / RFU, HNRNPA1 / Fold change vs veh, HNRNPA1 / RFU, RNF170 / Fold change vs veh, RNF170 / RFU, ZNF28 / Fold change vs veh, ZNF28 / RFU, RNGTT / Fold change vs veh, RNGTT / RFU, OGT / Fold change vs veh, OGT / RFU, BRD1 / Fold change vs veh, BRD1 / RFU, MARS / Fold change vs veh, MARS / RFU, ZNF655 / Fold change vs veh, ZNF655 / RFU, FAHD1 / Fold change vs veh, FAHD1 / RFU, BDP1 / Fold change vs veh, BDP1 / RFU, LRRCC1 / Fold change vs veh, LRRCC1 / RFU, ARID1A / Fold change vs veh, ARID1A / RFU, ZNF146 / Fold change vs veh, ZNF146 / RFU, ZNF330 / Fold change vs veh, ZNF330 / RFU, GPN3 / Fold change vs veh, GPN3 / RFU, C9orf123 / Fold change vs veh, C9orf123 / RFU, N4BP2L2 / Fold change vs veh, N4BP2L2 / RFU, ARFIP1 / Fold change vs veh, ARFIP1 / RFU, FAM179B / Fold change vs veh, FAM179B / RFU, BCL10 / Fold change vs veh, BCL10 / RFU, UHRF1BP1L / Fold change vs veh, UHRF1BP1L / RFU, BET1 / Fold change vs veh, BET1 / RFU, CNOT2 / Fold change vs veh, CNOT2 / RFU, ZNF268 / Fold change vs veh, ZNF268 / Fold change vs veh, ZNF507 / RFU, DGCR2 / Fold change vs veh, DGCR2 / RFU, WDSUB1 / Fold change vs veh, WDSUB1 / Fold change vs veh, HSP90B1 /// MIR3652 / RFU, ADSS / Fold change vs veh, ADSS / RFU, GK / Fold change vs veh, GK / RFU, ZNF148 / Fold change vs veh, ZNF148 / RFU, TAF9 / Fold change vs veh, TAF9 / RFU, SLC1A5 / Fold change vs veh, SLC1A5 / RFU, SLMO2 / Fold change vs veh, SLMO2 / RFU, ABCC4 / Fold change vs veh, ABCC4 / RFU, LOC101060439 /// RAP1B / Fold change vs veh, LOC101060439 /// RAP1B / RFU, RFX7 / Fold change vs veh, RFX7 / RFU, GTPBP10 / Fold change vs veh, GTPBP10 / RFU, CNEP1R1 / Fold change vs veh, CNEP1R1 / RFU, BIVM-ERCC5 /// ERCC5 / Fold change vs veh, BIVM-ERCC5 /// ERCC5 / RFU, ILF3 / Fold change vs veh, ILF3 / RFU 11762660_at / Fold change /veh 11762660_at / RFU VCAN (11757783_s_at) / Fold change /veh VCAN (11757783_s_at) / RFU DDX43 (11728927_at) / Fold change /veh DDX43 (11728927_at) / RFU KRT8 (11758188_x_at) / Fold change /veh KRT8 (11758188_x_at) / RFU NKD1 (11759106_at) / Fold change /veh NKD1 (11759106_at) / RFU SRD5A1 (11742802_a_at) / Fold change /veh SRD5A1 (11742802_a_at) / RFU TPSAB1 /// TPSB2 (11721975_s_at) / Fold change /veh TPSAB1 /// TPSB2 (11721975_s_at) / RFU GSTM3 (11746129_a_at) / Fold change /veh GSTM3 (11746129_a_at) / RFU IL23R (11737362_x_at) / Fold change /veh IL23R (11737362_x_at) / RFU TMEM51 (11727254_a_at) / Fold change /veh TMEM51 (11727254_a_at) / RFU PIWIL2 (11732686_x_at) / Fold change /veh PIWIL2 (11732686_x_at) / RFU ORM1 (11744905_x_at) / Fold change /veh ORM1 (11744905_x_at) / RFU CCDC152 (11743942_at) / Fold change /veh CCDC152 (11743942_at) / RFU ECM1 (11717891_a_at) / Fold change /veh ECM1 (11717891_a_at) / RFU IL23R (11748794_a_at) / Fold change /veh IL23R (11748794_a_at) / RFU TNFAIP8L3 (11732012_x_at) / Fold change /veh TNFAIP8L3 (11732012_x_at) / RFU MBOAT4 (11741988_at) / Fold change /veh MBOAT4 (11741988_at) / RFU 11764193_at / Fold change /veh 11764193_at / RFU TMEM53 (11763286_at) / Fold change /veh TMEM53 (11763286_at) / RFU MAGEB2 (11727129_at) / Fold change /veh MAGEB2 (11727129_at) / RFU TMEM200A (11744735_a_at) / Fold change /veh TMEM200A (11744735_a_at) / RFU CCDC152 (11751479_a_at) / Fold change /veh CCDC152 (11751479_a_at) / RFU FAM211A (11726209_a_at) / Fold change /veh FAM211A (11726209_a_at) / RFU RGS16 (11746705_a_at) / Fold change /veh RGS16 (11746705_a_at) / RFU VCAN (11755009_s_at) / Fold change /veh VCAN (11755009_s_at) / RFU RHOB (11743442_s_at) / Fold change /veh RHOB (11743442_s_at) / RFU RGS16 (11720943_a_at) / Fold change /veh RGS16 (11720943_a_at) / RFU RGS16 (11720944_at) / Fold change /veh RGS16 (11720944_at) / RFU, VPS4B / Fold change vs veh, VPS4B / RFU, CREB1 / Fold change vs veh, CREB1 / RFU, DNAJC13 / Fold change vs veh, DNAJC13 / RFU, GNAQ / Fold change vs veh, GNAQ / RFU, CDK5R1 / Fold change vs veh, CDK5R1 / RFU, ZRANB3 / Fold change vs veh, ZRANB3 / RFU, CUL4A / Fold change vs veh, CUL4A / RFU, CCNY / Fold change vs veh, CCNY / RFU, UFL1 / Fold change vs veh, UFL1 / RFU, COG3 / Fold change vs veh, COG3 / RFU, DIAPH2 / Fold change vs veh, DIAPH2 / RFU, SKA2 / Fold change vs veh, SKA2 / RFU, AFF3 / Fold change vs veh, AFF3 / RFU, LMF1 / Fold change vs veh, LMF1 / RFU, IPO11 / Fold change vs veh, IPO11 / RFU, DFFB / Fold change vs veh, DFFB / RFU, FOXP1 / Fold change vs veh, FOXP1 / RFU, CARD8 / Fold change vs veh, CARD8 / RFU, STRN3 / Fold change vs veh, STRN3 / RFU, ADK / Fold change vs veh, ADK / RFU, RASSF2 / Fold change vs veh, RASSF2 / RFU, WIPF1 / Fold change vs veh, WIPF1 / RFU, LARP1B / Fold change vs veh, LARP1B / RFU, RASA1 / Fold change vs veh, RASA1 / RFU, RB1 / Fold change vs veh, RB1 / RFU, PPFIA1 / Fold change vs veh, PPFIA1 / RFU, MAT2A / Fold change vs veh, MAT2A / RFU, CCT5 / Fold change vs veh, CCT5 / RFU, WDR92 / Fold change vs veh, WDR92 / RFU, CUX1 / Fold change vs veh, CUX1 / RFU, TTC7A / Fold change vs veh, TTC7A / RFU, TMEM135 / Fold change vs veh, TMEM135 / RFU, DEPTOR / Fold change vs veh, DEPTOR / RFU, CPM / Fold change vs veh, CPM / RFU, DNAJB6 / Fold change vs veh, DNAJB6 / RFU, CACNA2D3 / Fold change vs veh, CACNA2D3 / RFU, DTX4 / Fold change vs veh, DTX4 / RFU, TFCP2 / Fold change vs veh, TFCP2 / RFU, GMCL1 /// GMCL1P1 / Fold change vs veh, GMCL1 /// GMCL1P1 / RFU, AEBP2 / Fold change vs veh, AEBP2 / RFU, SNHG1 /// SNORD22 /// SNORD25 /// SNORD26 /// SNORD27 /// SNORD28 /// SNORD29 /// SNORD31 / Fold change vs veh, SNHG1 /// SNORD22 /// SNORD25 /// SNORD26 /// SNORD27 /// SNORD28 /// SNORD29 /// SNORD31 / Fold change (Aza/veh), C12orf56 (ProbeSet 11735607_a_at) / Fold change (ACY-1035/veh), C12orf56 (ProbeSet 11735607_a_at) / Fold change (Aza/veh), FGFR1OP (ProbeSet 11751329_s_at) / Fold change (ACY-1035/veh), FGFR1OP (ProbeSet 11751329_s_at) / Fold change (Aza/veh), VPS36 (ProbeSet 11739960_a_at) / Fold change (ACY-1035/veh), VPS36 (ProbeSet 11739960_a_at) / RFU SYPL1 (11715823_x_at) / Fold change /veh SYPL1 (11715823_x_at) / RFU IGFBP7 (11715501_s_at) / Fold change /veh IGFBP7 (11715501_s_at) / RFU REEP3 (11722064_at) / Fold change /veh REEP3 (11722064_at) / RFU IGLL1 (11728026_x_at) / Fold change /veh IGLL1 (11728026_x_at): dose or concentration left out as unconfirmed
Conditions: ProbeSet 11718569_a_at; LIST D

Compound: Nc1ccc(-c2cccs2)cc1NC(=O)c1ccc2c(c1)cc(C1CC1)n2CCN1CCOCC1 [ACY-1035]
- Fold change vs veh, WIPF1: 0.95
